Where “and” joins values, the source holds several entries; their conditions need not be identical. Equal entries are not always repeated.
Assays:
Phakopsora pachyrhizi = Phakopsora pachyrhizi / soybean / leaf disc preventative (Asian soybean rust); type: in vivo; conditions: foliar, soybean leaf disks, compared to untreated control
Description: Leaf disks or leaf segments of various plant species are cut from plants grown in a greenhouse. The cut leaf disks or segments are placed in multiwell plates (24-well format) onto water agar. The leaf disks are sprayed with a test solution before (preventative) or after (curative) inoculation. Compounds to be tested are prepared as DMSO solutions (max. 10 mg/ml) which are diluted to the appropriate concentration with 0.025% Tween20 just before spraying. The inoculated leaf disks or segments are incubated under defined conditions (temperature, relative humidity, light, etc.) according to the respective test system. A single evaluation of disease level is carried out 3 to 14 days after inoculation, depending on the pathosystem. Percent disease control relative to the untreated check leaf disks or segments is then calculated. Soybean leaf disks are placed on water agar in multiwell plates (24-well format) and sprayed with the formulated test compound diluted in water. One day after application leaf discs are inoculated by spraying a spore suspension on the lower leaf surface. After an incubation period in a climate cabinet of 24-36 hours in darkness at 20° C., and 75% rh leaf disc are kept at 20° C. with 12 h light/day and 75% rh. The activity of a compound is assessed as percent disease control compared to untreated when an appropriate level of disease damage appears in untreated check leaf disks (12-14 days after application).

[1] = tested on: Puccinia recondita f. sp. tritici; test: Puccinia recondita f. sp. tritici / wheat / leaf disc curative (brown rust); type: in vivo; conditions: foliar, 24 h, wheat leaf segments cv. Kanzler, curative (applied 1 day after inoculation), compared to untreated control, read-out: control of Puccinia recondita f. sp. tritic
Description: Leaf disks or leaf segments of various plant species are cut from plants grown in a greenhouse. The cut leaf disks or segments are placed in multiwell plates (24-well format) onto water agar. The leaf disks are sprayed with a test solution before (preventative) or after (curative) inoculation. Compounds to be tested are prepared as DMSO solutions (max. 10 mg/ml) which are diluted to the appropriate concentration with 0.025% Tween20 just before spraying. The inoculated leaf disks or segments are incubated under defined conditions (temperature, relative humidity, light, etc.) according to the respective test system. A single evaluation of disease level is carried out 3 to 14 days after inoculation, depending on the pathosystem. Percent disease control relative to the untreated check leaf disks or segments is then calculated. Wheat leaf segments cv. Kanzler are placed on agar in multiwell plates (24-well format). The leaf segments are inoculated with a spore suspension of the fungus. Plates are stored in darkness at 19° C., and 75% rh. The formulated test compound diluted in water is applied 1 day after inoculation. The leaf segments are incubated at 19° C., and 75% rh under a light regime of 12 h light/12 h darkness in a climate cabinet and the activity of a compound is assessed as percent disease control compared to untreated when an appropriate level of disease damage appears in untreated check leaf segments (6-8 days after application).

[2] = tested on: Glomerella lagenarium (Colletotrichum lagenarium); test: Glomerella lagenarium (Colletotrichum lagenarium) liquid culture / cucumber / preventative (anthracnose); type: cell-based; conditions: Colletotrichum orbiculare, liquid culture (PDB), growth inhibition measured photometrically 3-4 days after application, compared to untreated control
Description: […] fragments or conidia suspensions of a fungus prepared either freshly from liquid cultures of the fungus or from cryogenic storage, are directly mixed into nutrient broth. DMSO solutions of the test compound (max. 10 mg/ml) are diluted with 0.025% Tween20 by a factor of 50 and 10 μl of this solution is pipetted into a microtiter plate (96-well format). The nutrient broth containing the fungal spores/mycelia fragments is then added to give an end concentration of the tested compound. The test plates are incubated in the dark at 24° C., and 96% relative humidity. The inhibition of fungal growth is determined photometrically after 2 to 7 days, depending on the pathosystem, and percent antifungal activity relative to the untreated check is calculated. Conidia of the fungus from cryogenic storage are directly mixed into nutrient broth (PDB potato dextrose broth). Alter placing a (DMSO) solution of test compound into a microtiter plate (96-well format), the nutrient broth containing the fungal spores is added. The test plates are incubated at 24° C., and the inhibition of growth is measured photometrically 3-4 days after application.

[3] = tested on: Puccinia recondita f. sp. tritici; test: Puccinia recondita f. sp. tritici / wheat / leaf disc preventative (brown rust); type: in vivo; conditions: foliar, wheat leaf segments cv. Kanzler, preventative (inoculated 1 day after application), compared to untreated control
Description: Leaf disks or leaf segments of various plant species are cut from plants grown in a greenhouse. The cut leaf disks or segments are placed in multiwell plates (24-well format) onto water agar. The leaf disks are sprayed with a test solution before (preventative) or after (curative) inoculation. Compounds to be tested are prepared as DMSO solutions (max. 10 mg/ml) which are diluted to the appropriate concentration with 0.025% Tween20 just before spraying. The inoculated leaf disks or segments are incubated under defined conditions (temperature, relative humidity, light, etc.) according to the respective test system. A single evaluation of disease level is carried out 3 to 14 days after inoculation, depending on the pathosystem. Percent disease control relative to the untreated check leaf disks or segments is then calculated. Wheat leaf segments cv. Kanzler are placed on agar in multiwell plates (24-well format) and sprayed with the formulated test compound diluted in water. The leaf disks are inoculated with a spore suspension of the fungus 1 day after application. The inoculated leaf segments are incubated at 19° C. and 75% rh under a light regime of 12 h light/12 h darkness in a climate cabinet and the activity of a compound is assessed as percent disease control compared to untreated when an appropriate level of disease damage appears in untreated check leaf segments (7-9 days after application).

Row | Compound | pest or weed control at 200 ppm (Phakopsora pachyrhizi) [%] | pest or weed control at 200 ppm [1] [%] | inhibition of growth at 20 ppm [2] [%] | pest or weed control at 200 ppm [3] [%] | melting point
1 | CN(C)N(CC(=O)NC(C)(C)C)C(=O)c1ccc(-c2noc(C(F)(F)F)n2)cc1 [Compound 1.1, N-tert-butyl-2-[dimethylamino-[4-[5-(trifluoromethyl)-1,2,4-oxadiazol-3-yl]benzoyl]amino]-acetamide] | ≥ 80 | ≥ 80 | ≥ 80 | ≥ 80 | 
2 | O=C(NN1CCOC1=O)c1ccc(-c2noc(C(F)(F)F)n2)cc1F [Compound 1.3, 2-fluoro-N-(2-oxooxazolidin-3-yl)-4-[5-(trifluoromethyl)-1,2,4-oxadiazol-3-yl]benzamide] | ≥ 80 | ≥ 80 | ≥ 80 | ≥ 80 | 186 to 189 °C and 186.8 to 188.8 °C
3 | O=C(NN1CCOCC1)c1ccc(-c2noc(C(F)(F)F)n2)cc1F [Compound 1.15, 2-fluoro-N-morpholino-4-[5-(trifluoromethyl)-1,2,4-oxadiazol-3-yl]benzamide] | ≥ 80 | ≥ 80 | ≥ 80 | ≥ 80 | 140 to 160 °C
4 | O=C(NN1CCOC1=O)c1ccc(-c2noc(C(F)(F)F)n2)cc1 [Compound 1.19, N-(2-oxooxazolidin-3-yl)-4-[5-(trifluoromethyl)-1,2,4-oxadiazol-3-yl]benzamide] | ≥ 80 | ≥ 80 | ≥ 80 | ≥ 80 | 196 to 200 °C
5 | CC(C)OCC1CN(NC(=O)c2ccc(-c3noc(C(F)(F)F)n3)cc2)C(=O)O1 (stereo not drawn) [Compound 1.20, N-[5-(isopropoxymethyl)-2-oxo-oxazolidin-3-yl]-4-[5-(trifluoromethyl)-1,2,4-oxadiazol-3-yl]benzamide] | ≥ 80 |  | ≥ 80 |  | 192 to 197 °C
6 | O=C(Cc1ccc(-c2noc(C(F)(F)F)n2)cc1)NN1CCOC1=O [Compound 1.21, N-(2-oxooxazolidin-3-yl)-2-[4-[5-(trifluoromethyl)-1,2,4-oxadiazol-3-yl]phenyl]acetamide] | ≥ 80 | ≥ 80 | ≥ 80 | ≥ 80 | 184 to 187 °C
7 | O=C(NNCCOC(F)F)c1ccc(-c2noc(C(F)(F)F)n2)cc1 [Compound 1.22, N′-[2-(difluoromethoxy)ethyl]-4-[5-(trifluoromethyl)-1,2,4-oxadiazol-3-yl]benzohydrazide] | ≥ 80 | ≥ 80 | ≥ 80 | ≥ 80 | 
8 | O=C(NN1CCCCC1=O)c1ccc(-c2noc(C(F)(F)F)n2)cc1F [Compound 1.23, 2-fluoro-N-(2-oxo-1-piperidyl)-4-[5-(trifluoromethyl)-1,2,4-oxadiazol-3-yl]benzamide] | ≥ 80 | ≥ 80 | ≥ 80 | ≥ 80 | 120 to 136 °C
9 | O=C(NN1CCCCC1=O)c1ccc(-c2noc(C(F)(F)F)n2)c(F)c1 [Compound 1.24, 3-fluoro-N-(2-oxo-1-piperidyl)-4-[5-(trifluoromethyl)-1,2,4-oxadiazol-3-yl]benzamide] | ≥ 80 | ≥ 80 | ≥ 80 | ≥ 80 | 180 to 200 °C
10 | CN(C)NC(=O)Cc1ccc(-c2noc(C(F)(F)F)n2)cc1F [Compound 1.26, 2-[2-fluoro-4-[5-(trifluoromethyl)-1,2,4-oxadiazol-3-yl]phenyl]-N′,N′-dimethyl-acetohydrazide] | ≥ 80 | ≥ 80 | ≥ 80 | ≥ 80 | 156 to 158 °C
11 | CN(C)NC(=O)Cc1ccc(-c2noc(C(F)(F)F)n2)cc1 [Compound 1.27, N′,N′-dimethyl-2-[4-[5-(trifluoromethyl)-1,2,4-oxadiazol-3-yl]phenyl]-acetohydrazide] | ≥ 80 | ≥ 80 | ≥ 80 | ≥ 80 | 180 to 182 °C
